One data set deals with beta amyloid 42. Kind of data set: Aβ40/42 ELISA Assay: Aβ42. The data set is classed as cell-based. The conditions noted are these: Cricetulus griseus; CHO cells carrying the APP-REP-NL plasmid, 22 hours, sandwich ELISA of medium. The method, then:
(§1) Pharmacology: Aβ40/42 ELISA Assay
(§2) Compounds are diluted from DMSO stocks to 2 μM and below in a cell culture medium. Compounds are then applied to CHO cells carrying the APP-REP-NL plasmid [Sudhir et. al, J. Biol. Chem. 267:25602-25608 (1992)] for a period of 22 hours. After the conditioning period, medium is collected, diluted in assay buffer containing protein, and samples, controls, and synthetic peptide standards are incubated on a prepared ELISA plate. Using a sandwich ELISA with antibodies specifically directed against the carboxyl terminus of beta amyloid 40 or 42 [analogous to the method reported by Haugabook et al., J. Neurosci. Methods 108:171-179 (2001) but using goat anti-mouse IgGl (source: Southern Biotech) as the anchor, 6E10 as the capture antibody (Source: SENETEK), rabbit antiαβ40 and antiαβB42 (source: QCB) and APL-donkey anti-rabbit IgG (H+L, source: Southern Biotech) as the detection antibody], the effect of the compound treatment on the cellular production of extracellular beta amyloid is quantified. Cells treated with compound are subsequently incubated in cell culture medium containing […]. After a short incubation period, MTS/medium containing plates are read in a spectrophotometer to determine the extent to which compound toxicity affected the cell's metabolism and ability to synthesize beta amyloid.
(§3) Test Samples: compound samples are supplied as 20 mM stock solutions in a 100% DMSO solution.
(§4) APP-REP-NL cells: Qualified cell lines are carried from week to week using 1:100 dilutions and are cultured in DMEM supplemented with 1× antibiotic/antimycotic, 200 μg/ml of G418 antibiotic, and 10% certified fetal calf serum. Cells are also banked in liquid nitrogen. Periodically, beta amyloid production is assessed, and cells are either kept in culture or replaced with progenitors at full expression.
(§5) Antibodies: Are from certified lots that have already been qualified in this assay. Antibodies are stored in small frozen aliquots at −80° C. that are thawed and used.
(§6) A compound is considered active if it has an EC50 for Aβ 40 reduction of <100 μM and no toxicity at doses in the vicinity the EC50.
On the technique in general: ELISA stands for enzyme-linked immunosorbent assay.

The next data set deals with beta amyloid 40. Briefly: Aβ40/42 ELISA Assay: Aβ40. The conditions noted are these: Cricetulus griseus; CHO cells carrying the APP-REP-NL plasmid, 22 hours, sandwich ELISA of medium. It is filed as cell-based. The method, then: as §1, §2, §3, §4, §5, §6

The structures appear in SMILES notation.

What is called EC50 is the concentration that produces a half-maximal response. The low end stands for an effect from little substance, the high end for a need for much substance. On to `O=S(=O)(NC(CO)C(C(F)(F)F)C(F)(F)F)c1cc(F)c(F)c(F)c1` (stereo not shown) [Example 42, 3,4,5-Trifluoro-N-(3,3,3-trifluoro-1-hydroxymethyl-2-trifluoromethyl-propyl)-benzene sulfonamide], for which the results for the EC50 with beta amyloid 42 and in the data set with beta amyloid 40 were 5.5 µM and 6.63 µM, respectively.
For `CC(C)c1ccc(S(=O)(=O)NC(CO)C(C(F)(F)F)C(F)(F)F)cc1` (stereo not shown) [Example 10, 4-isopropyl-N-[3,3,3-trifluoro-1-(hydroxymethyl)-2-(trifluoromethyl)propyl]benzenesulfonamide], in that order: 44.1 µM and 17.7 µM.
In the same order, the values of `N#Cc1ccc(S(=O)(=O)NC(CO)C(C(F)(F)F)C(F)(F)F)cc1` (stereo not shown) [Example 18, 4-Cyano-N-(3,3,3-trifluoro-1-hydroxymethyl-2-trifluoromethyl-propyl)-benzenesulfonamide] are 101 µM and 90.7 µM.
In the same order, the values of `O=S(=O)(NC(CO)C(CC(F)(F)F)CC(F)(F)F)c1ccc(Cl)cc1` (stereo not shown) [Example 45, 4-Chloro-N-[4,4,4-trifluoro-1-hydroxymethyl-2-(2,2,2-trifluoro-ethyl)-butyl]-benzenesulfonamide] are 0.504 µM and 0.518 µM.
Regarding `O=S(=O)(N[C@H](CO)C(C(F)(F)F)C(F)(F)F)c1ccc(Cl)cc1` [Example 1, 4-Chloro-N-[(1S)-3,3,3-trifluoro-1-(hydroxymethyl)-2-(trifluoromethyl)propyl]benzenesulfonamide], the results for the EC50 in the data set with beta amyloid 42 and in the data set with beta amyloid 40 were 0.177 µM and 0.22 µM, respectively.
In the same order, the values of `O=S(=O)(NC(CO)C(C(F)(F)F)C(F)(F)F)c1ccc(F)c(Cl)c1` (stereo not shown) [Example 39, 3-chloro-4-fluoro-N-[3,3,3-trifluoro-1-(hydroxymethyl)-2-(trifluoromethyl)propyl]benzenesulfonamide] are 8.62 µM and 6.72 µM.
For `CCc1ccc(S(=O)(=O)NC(CO)C(C(F)(F)F)C(F)(F)F)cc1` (stereo not shown) [Example 9, 4-ethyl-N-[3,3,3-trifluoro-1-(hydroxymethyl)-2-(trifluoromethyl)propyl]benzenesulfonamide], in that order: 6.75 µM and 7.2 µM.
As to `COc1cc(S(=O)(=O)NC(CO)C(C(F)(F)F)C(F)(F)F)ccc1Cl` (stereo not shown) [Example 3, 4-Chloro-3-methoxy-N-(3,3,3-trifluoro-1-hydroxymethyl-2-trifluoromethyl-propyl)-benzenesulfonamide], the EC50 with beta amyloid 42 turned out to be 13.8 µM; in the data set on beta amyloid 40, 9.94 µM.
`Cc1ccc(S(=O)(=O)NC(CO)C(C(F)(F)F)C(F)(F)F)cc1` (stereo not shown) [Example 14, 4-methyl-N-[3,3,3-trifluoro-1-(hydroxymethyl)-2-(trifluoromethyl)propyl]benzenesulfonamide]: the values for the 50% effective concentration (EC50) with beta amyloid 42 and in the data set on beta amyloid 40 were 1.26 µM and 1.5 µM, respectively.
In the same order, the values of `O=S(=O)(NC(CO)C(C(F)(F)F)C(F)(F)F)c1ccc(F)c(F)c1` (stereo not shown) [Example 34, 3,4-difluoro-N-(3,3,3-trifluoro-1-hydroxymethyl-2-trifluoromethyl-propyl)-benzenesulfonamide] are 2.4 µM and 2.22 µM.
Consider `O=S(=O)(NC(CO)C(C(F)(F)F)C(F)(F)F)c1ccc(Cl)cc1` (stereo not shown) [Example 21, 4-chloro-N-(3,3,3-trifluoro-1-hydroxymethyl-2-trifluoromethyl-propyl)-benzenesulfonamide], for which the values for the EC50 in the data set with beta amyloid 42 and in the data set on beta amyloid 40 were 0.932 µM and 0.997 µM, respectively.
Turning to `O=S(=O)(NC(CO)C(C(F)(F)F)C(F)(F)F)c1ccccc1Cl` (stereo not shown) [Example 30, 2-chloro-N-(3,3,3-trifluoro-1-hydroxymethyl-2-trifluoromethyl-propyl)-benzenesulfonamide], the EC50 was determined as 24.5 µM with beta amyloid 42 and 25.4 µM with beta amyloid 40.
In the same order, the values of `Cc1cccc(S(=O)(=O)NC(CO)C(C(F)(F)F)C(F)(F)F)c1` (stereo not shown) [Example 15, 3-methyl-N-[3,3,3-trifluoro-1-(hydroxymethyl)-2-(trifluoromethyl)propyl]benzenesulfonamide] are 14.5 µM and 15.1 µM.
Usually melting point stands for the temperature of the solid-liquid transition. Compound `O=S(=O)(N[C@H](CO)C(CC(F)(F)F)CC(F)(F)F)c1ccc(Cl)cc1` [Example 2, 4-Chloro-N-[(1S)-4,4,4-trifluoro-1-hydroxymethyl-2-(2,2,2-trifluoro-ethyl)-butyl]-benzenesulfonamide] returned a melting point of 186 to 187 °C. For the same compound, a half-maximal response with beta amyloid 42 (EC50) required 0.204 µM. The compound further showed an EC50 in the data set with beta amyloid 40 of 0.334 µM.
Regarding `O=S(=O)(NC(CO)C(C(F)(F)F)C(F)(F)F)c1ccc(Br)cc1` (stereo not shown) [Example 31, 4-bromo-N-(3,3,3-trifluoro-1-hydroxymethyl-2-trifluoromethyl-propyl)-benzenesulfonamide], the EC50 with beta amyloid 42 is 0.905 µM; in the data set on beta amyloid 40 it was 0.886 µM.
For `O=S(=O)(NC(CO)C(C(F)(F)F)C(F)(F)F)c1ccc(F)cc1` (stereo not shown) [Example 26, 4-Fluoro-N-[3,3,3-trifluoro-1-(hydroxymethyl)-2-(trifluoromethyl)propyl]benzene sulfonamide], in that order: 1.21 µM and 1.13 µM.
In the same order, the values of `O=S(=O)(NC(CO)C(C(F)(F)F)C(F)(F)F)c1ccc(OC(F)(F)F)cc1` (stereo not shown) [Example 20, N-(3,3,3-trifluoro-1-hydroxymethyl-2-trifluoromethyl-propyl)-4-trifluoromethoxy-benzenesulfonamide] are 6.42 µM and 8.51 µM.
For `C[C@@H]([C@@H](CO)NS(=O)(=O)c1ccc(Cl)c(Cl)c1)C(F)(F)F` [Example 46, 3,4-Dichloro-N-[(1S,2S)-3,3,3-trifluoro-1-(hydroxymethyl)-2-methylpropyl]benzenesulfonamide], in that order: 4.84 µM and 5.07 µM.
With `O=S(=O)(NC(CO)C(C(F)(F)F)C(F)(F)F)c1ccc(Cl)c(Cl)c1` (stereo not shown) [Example 38, 3,4-dichloro-N-(3,3,3-trifluoro-1-hydroxymethyl-2-trifluoromethyl-propyl)-benzenesulfonamide], the EC50 in the data set with beta amyloid 42 came to 6.55 µM; with beta amyloid 40 it was 4.68 µM.
For `O=S(=O)(NC(CO)C(C(F)(F)F)C(F)(F)F)c1ccc(F)c(F)c1F` (stereo not shown) [Example 40, 2,3,4-trifluoro-N-(3,3,3-trifluoro-1-hydroxymethyl-2-trifluoromethyl-propyl)-benzenesulfonamide], the 50% effective concentration (EC50) worked out at 45.4 µM with beta amyloid 42 and 32.2 µM in the data set on beta amyloid 40.
On to `O=S(=O)(NC(CO)C(C(F)(F)F)C(F)(F)F)c1cccc(F)c1` (stereo not shown) [Example 27, 3-fluoro-N-(3,3,3-trifluoro-1-hydroxymethyl-2-trifluoromethyl-propyl)-benzenesulfonamide], for which the EC50 in the data set on beta amyloid 42 was 12.1 µM; in the data set on beta amyloid 40, 9.08 µM.
With `C[C@@H]([C@@H](CO)NS(=O)(=O)c1ccc(Cl)cc1)C(F)(F)F` [Example 43, 4-Chloro-N-[(1S,2S)-3,3,3-trifluoro-1-(hydroxymethyl)-2-methylpropyl]benzenesulfonamide], the concentration for a half-maximal effect (EC50) was found to be 0.384 µM in the data set on beta amyloid 42 and 0.423 µM in the data set on beta amyloid 40.
In the same order, the values of `C[C@@H]([C@@H](CO)NS(=O)(=O)c1ccc(C(F)(F)F)cc1)C(F)(F)F` [Example 47, N-[(1S,2S)-3,3,3-Trifluoro-1-(hydroxymethyl)-2-methylpropyl]-4-(trifluoromethyl)benzenesulfonamide] are 1.17 µM and 1.4 µM.
For `O=S(=O)(NC(CO)C(C(F)(F)F)C(F)(F)F)c1cccc(Cl)c1` (stereo not shown) [Example 29, 3-chloro-N-(3,3,3-trifluoro-1-hydroxymethyl-2-trifluoromethyl-propyl)-benzenesulfonamide], in that order: 37.2 µM and 24.2 µM.

The values above are taken from patent US7550629B2, “Trifluoromethyl-containing phenylsulfonamide beta amyloid inhibitors” (Wyeth, priority 2006, dated 2009).
